Usually melting point stands for the temperature of the solid-liquid transition. In general, Ki refers to a dissociation constant, usually derived from enzyme kinetics or from competition with a known ligand.

Experimental findings from patent US20010012846A1, “Quinoline-4-carboxamide derivatives as NK-2 and NK-3 receptor antagonists” (priority 1997, published 2001) are described below.

Data set [1] has as its target T1, human neurokinin-2 receptor (Homo sapiens, UniProt P21452).
T1 construct: expressed in transfected cells; host or cells: CHO
T1 sequence (P21452 1-398): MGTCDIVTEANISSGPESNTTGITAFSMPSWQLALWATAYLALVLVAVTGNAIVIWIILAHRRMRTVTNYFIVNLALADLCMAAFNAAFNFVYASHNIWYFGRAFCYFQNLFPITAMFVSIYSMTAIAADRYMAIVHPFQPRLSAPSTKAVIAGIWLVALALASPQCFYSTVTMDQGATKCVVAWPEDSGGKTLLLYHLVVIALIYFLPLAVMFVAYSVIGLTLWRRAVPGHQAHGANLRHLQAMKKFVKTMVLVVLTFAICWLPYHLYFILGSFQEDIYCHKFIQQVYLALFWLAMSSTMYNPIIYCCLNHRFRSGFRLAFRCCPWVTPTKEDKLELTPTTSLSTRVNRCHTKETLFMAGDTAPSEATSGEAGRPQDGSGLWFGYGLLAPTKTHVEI
Put plainly: Binding affinity to human NK-2 receptor expressed in CHO cells (inhibition of [125I]-NKA or [3H]-NKA binding). Particulars: human neurokinin-2 receptor expressed in CHO cell lines; read-out: Binding affinity, Ki (nM) hNK-2-CHO. Here is the method:
The activity of the compounds of the present invention, as NK-2 ligands, is determined by their ability to inhibit the binding of the radiolabelled NK-2 ligands, [^125I]-NKA or [^3H]-NKA, to human NK-2 receptors (Aharony et al, 1992, Neuropeptide, 23, 121-130).
The binding assays utilized allow the determination of the concentration of the individual compound required to reduce by 50% the [^125I]-NKA and [^3H]-NKA specific binding to NK2 receptor in equilibrium conditions (IC50).
Binding assays provide for each compound tested a mean IC50 value of 2-5 separate experiments performed in duplicate or triplicate. […] The NK-2-antagonist activity of the compounds of the present invention is determined by their ability to inhibit human NK-2 receptor-mediated Ca^++ mobilization (Mochizuki et al, 1994, J. Biol. Chem., 269, 9651-9658). Human receptor functional assay allows the determination of the concentration of the individual compound required to reduce by 50% (IC50 values) the Ca^++ mobilization induced by the agonist NKA. In this assay, the compounds of the present invention behave as antagonists.

The target in data set [2] is T2, human neurokinin-3 receptor (Homo sapiens, UniProt P29371).
T2 construct: expressed in transfected cells; host or cells: CHO
T2 sequence (P29371 1-465): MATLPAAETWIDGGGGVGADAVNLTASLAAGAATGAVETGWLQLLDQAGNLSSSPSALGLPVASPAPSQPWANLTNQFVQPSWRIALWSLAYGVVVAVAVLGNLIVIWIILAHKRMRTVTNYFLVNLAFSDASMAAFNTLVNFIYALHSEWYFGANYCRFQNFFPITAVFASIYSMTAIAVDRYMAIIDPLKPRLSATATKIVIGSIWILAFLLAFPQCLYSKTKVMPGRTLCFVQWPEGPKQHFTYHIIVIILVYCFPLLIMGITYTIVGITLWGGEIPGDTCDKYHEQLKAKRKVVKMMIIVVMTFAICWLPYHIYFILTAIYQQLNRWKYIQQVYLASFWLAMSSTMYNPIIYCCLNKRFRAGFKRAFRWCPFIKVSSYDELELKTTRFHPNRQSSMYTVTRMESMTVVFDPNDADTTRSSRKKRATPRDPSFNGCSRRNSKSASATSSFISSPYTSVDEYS
Put plainly: Binding affinity to human NK-3 receptor expressed in CHO cells (inhibition of [125I]-[Me-Phe7]-NKB or [3H]-Senktide binding). Conditions: human neurokinin-3 receptor expressed in CHO cell lines; read-out: Binding affinity, Ki (nM) hNK-3-CHO. The protocol: The activity of the compounds of the present invention, as NK3 ligands, is determined by their ability to inhibit the binding of the radiolabelled NK3 ligands, [^125I]-[Me-Phe^7]-NKB or [^3H]-Senktide, to guinea-pig and human NK3 receptors (Renzetti et al, 1991, Neuropeptide, 18, 104-114; Buell et al, 1992, FEBS, 299(1), 90-95; Chung et al, 1994, Biochem. Biophys. Res. Commun., 198(3), 967-972).
The binding assays utilized allow the determination of the concentration of the individual compound required to reduce by 50% the [^125I]-[Me-Phe^7]-NKB and [^3H]-Senktide specific binding to NK3 receptor in equilibrium conditions (IC50).
Binding assays provide for each compound tested a mean IC50 value of 2-5 separate experiments performed in duplicate or triplicate. […] The NK3-antagonist activity of the compounds of the present invention is determined by their ability to inhibit senktide-induced contraction of the guinea-pig ileum (Maggi et al, 1990, Br. J. Pharmacol., 101, 996-1000) and rabbit isolated iris sphincter muscle (Hall et al., 1991, Eur. J. Pharmacol., 199, 9-14) and human NK3 receptors-mediated Ca^++ mobilization (Mochizuki et al, 1994, J. Biol. Chem., 269, 9651-9658). Guinea-pig and rabbit in-vitro functional assays provide for each compound tested a mean KB value of 3-8 separate experiments, where KB is the concentration of the individual compound required to produce a 2-fold rightward shift in the concentration-response curve of senktide. Human receptor functional assay allows the determination of the concentration of the individual compound required to reduce by 50% (IC50 values) the Ca^++ mobilization induced by the agonist NKB. In this assay, the compounds of the present invention behave as antagonists.

Some results are limits rather than exact numbers.

In turn, `CC[C@H](NC(=O)c1c(CCCCN2CCN(c3ccccc3)CC2)c(-c2ccccc2)nc2ccccc12)c1ccccc1` [Example 14] returned a melting point of 151 to 153 °C. The Ki in data set [1] came out at 22.2 nM. For the same molecule, the Ki in data set [2] turned out to be 1.1 nM.

Molecule `CC[C@H](NC(=O)c1c(CCN2CCN(c3cccc(C(F)(F)F)c3)CC2)c(-c2ccccc2)nc2ccccc12)c1ccccc1` [Example 22] registered a melting point of 115 to 117 °C. Moreover, the Ki in data set [1] is 44.9 nM. The Ki in data set [2] came out at 2.9 nM.

For the molecule `CC[C@H](NC(=O)c1c(CN2CCC(O)CC2)c(-c2ccccc2)nc2ccccc12)c1ccccc1` [Example 18, (S)-N-(α-Ethylbenzyl)-3-[(4-hydroxypiperidin-1-yl)methyl]-2-phenylquinoline-4-carboxamide], the melting point was in the range of 203 to 207 °C. Besides, the Ki in data set [1] is 44.6 nM. Also, the inhibition constant (Ki) in data set [2] worked out at 2.3 nM.

`CC[C@H](NC(=O)c1c(CCCN2CCN(c3cccc(C(F)(F)F)c3)CC2)c(-c2ccccc2)nc2ccccc12)c1ccccc1` [Example 23] gave a melting point of 102 to 105 °C. Moreover, the Ki in data set [1] was 9.7 nM. In addition, the Ki in data set [2] was determined as 1.2 nM.

In the case of `CC[C@H](NC(=O)c1c(CN2CCC(=O)CC2)c(-c2ccccc2)nc2ccccc12)c1ccccc1` [Example 17, (S)-N-(α-Ethylbenzyl)-3-[(4-oxopiperidin-1-yl)methyl]-2-phenylquinoline-4-carboxamide], the melting point is over 95 °C. The inhibition constant Ki in data set [1] amounted to 42.7 nM. Moreover, the Ki in data set [2] is 1.5 nM.

Turning to `CC[C@H](NC(=O)c1c(CN2CCN(Cc3ccccc3)CC2)c(-c2ccccc2)nc2ccccc12)c1ccccc1` [Example 26, (S)-N-(α-ethylbenzyl)-3-[(4-benzylpiperazin-1-yl)methyl]-2-phenylquinoline-4-carboxamide], the melting point is 85 °C (dec.). Besides, in data set [1], the Ki is 1.7 nM. In addition, the Ki in data set [2] was 0.4 nM.

As for `CC[C@H](NC(=O)c1c(CN2CCC[C@@H]2CO)c(-c2ccccc2)nc2ccccc12)c1ccccc1` [Example 5], the melting point is 83 °C (dec.). In data set [1], the Ki is 73.2 nM. Besides, in data set [2], the Ki is 0.9 nM.

`CC[C@H](NC(=O)c1c(CCN2CCN(c3ccc(F)cc3)CC2)c(-c2ccccc2)nc2ccccc12)c1ccccc1` [Example 30] returned a melting point of 96 to 98 °C. Besides, the Ki in data set [1] was determined as 27.1 nM. Further, in data set [2], the Ki turned out to be 3 nM.
